The record followed here is US20240400549A1, “COMPOUNDS AND THEIR USES FOR TREATING NEURODEGENERATIVE DISEASE” (Academia Sinica, priority 2021, published 2024).

In data set [1] the test system is YFP—C-TDP-43 transgenic C. elegans. The data set can be described thus: Swimming (thrashing) body bend assay of YFP-C-TDP-43 transgenic C. elegans. It is filed as in vivo. The settings on record: YFP—C-TDP-43 C. elegans, swimming in buffer, 30 seconds. As to the method:
The YFP—C-TDP-43 transgenic strains of C. elegans generated in this study were IW33 [Psnb-l:C-TDP-43219-414-YFP (iwIs22)]. The strains of nematodes were maintained with standard procedure and grown at 20° C. as previously described (Zhang, T. et al. Hum. Mol. Genet. 2011, 20 (10), 1952). For all assays, the transgenic young two-day (80 hours) adults were used. For larvae synchronization, the eggs were isolated by lysing gravid adult worms with freshly prepared bleaching solution (0.5 mL 5 M NaOH with 1 mL bleach) and incubated in S buffer (recipe) for overnight. For drug treatments, compound I-1b and/or DMSO were solely or along with MG132 applied to fresh NGM plates prior to installing the synchronized C. elegans. The body bends of the corresponding treatment in a duration of 30 seconds of the various strains were documented through SMZ800N stereomicroscope equipped with a CCD camera (Nikon). A body bend was counted as the head of C. elegans travels across the mid-body in 1×PBS buffer. Then, the bending videos of C. elegans were analyzed by ImageJ with the wrMTrck plugin (Nussbaum-Krammer, C. I. et al. J. Vis. Exp. 2015, (95), 52321). […]
As YFP—C-TDP-43 readily forms cytosolic aggregates in nervous system, the YFP—C-TDP-43 aggregates both in the neuron processes and neuron bodies of the ventral cord were monitored. […]

Another data set deals with Neuro-2a cells. The data set can be described thus: Cytotoxicity of compounds in Neuro-2a cells. It is filed as cell-based, mouse. The settings on record: 5 μM concentration.
The target of data set [2] is T1, C-TDP-43 oligomeric intermediates (Homo sapiens, UniProt Q13148).
T1 construct: expressed in transfected cells; host or cells: Neuro-2a (mouse neuroblastoma)
T1 sequence (Q13148 208-414 limits assumed): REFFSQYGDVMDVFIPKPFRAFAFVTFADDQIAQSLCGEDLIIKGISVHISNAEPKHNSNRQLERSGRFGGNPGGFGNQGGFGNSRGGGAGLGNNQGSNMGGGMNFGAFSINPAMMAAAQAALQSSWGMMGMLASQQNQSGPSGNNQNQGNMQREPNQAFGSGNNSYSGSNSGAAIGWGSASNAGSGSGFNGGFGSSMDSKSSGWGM
T1 sequence (Q13148 208-414 limits assumed): as above
The data set can be described thus: FLIM-FRET of C-TDP-43 oligomeric intermediates in Neuro-2a cells. In kind it is cell-based, mouse. The protocol: To study the EFRET of oligomeric intermediates of C-TDP-43, we seeded 2×10^6 cells/dish of Neuro-2a cells in sterile 35 mm μ-Dish and transfected with either both 0.55 μg eGFP-C-TDP-43 and 0.55 μg mCherry-C-TDP-43 or both 0.55 μg eGFP and 0.55 μg mCherry (negative control) plasmids. After 2 hours, compound I-1b was delivered to the experimental group. After 48 h incubation, the Neuro-2a cells were fixed (4% paraformaldehyde in 15 min and stored in 1×PBS buffer) and further analyzed by Q2 FastFLIM system (ISS Inc.). The Neruo2a cells were monitored and captured under oil-immersion objective observation (Nikon Plan Apo 100×/numerical aperture (NA) 1.4). […]
The fitting method of the FastFLIM images were described in the “Experimental Section” of a previous publication (He, R. Y et al. Adv. Sci. 2020, 7 (2), 1901165). […] The FRET efficiency of oligomeric intermediates was calculated by the formula: […]
wherein τD is donor lifetime of eGFP only, and τDA denotes lifetime of intermediates. Then, the EFRET of each pixel to form the FRET maps as well as the histogram of EFRET (FIG. 12B) were calculated by ISS Software VistaVision. […]
To assess C-TDP-43 oligomeric intermediates, fluorescence lifetime imaging microscopy (FLIM) was employed to measure the efficiency of Forster resonance energy transfer (EFRET) of the fluorescence protein-tagged C-TDP-43 in the presence or absence of compound I-1b. […]

The target in data set [3] is T2, eGFP-C-TDP-43 oligomeric intermediates (Homo sapiens, UniProt Q13148).
T2 construct: expressed in transfected cells; host or cells: Neuro-2a (mouse neuroblastoma)
T2 sequence (Q13148 208-414 limits assumed): as above
The data set can be described thus: Size-exclusion chromatography and slot blot with oligomer-specific antibody A11. The settings on record: lysate of Neuro-2a cells overexpressing eGFP-C-TDP-43, 48 h. It is filed as cell-based, mouse. (SEC sorts molecules by how far they enter the pores of the column.)

Turning to `CN(C)c1ccc(-c2nc3ccc(OCCOCCOCCNc4cccc5c4C(=O)N(C4CCC(=O)NC4=O)C5=O)cc3s2)cc1` (centres unmarked) [I-1b, 4-((2-(2-(2-((2-(4-(dimethylamino)phenyl)benzo[d]thiazol-6-yl)oxy)ethoxy)ethoxy)ethyl)amino)-2-(2,6-dioxopiperidin-3-yl)isoindoline-1,3-dione], the “increase of bending frequency as compared to the DMSO control group” value in data set [1] is given as 28%. Further, the “cytotoxicity comparing to mock group of Neuro-2a cells” value with Neuro-2a cells is recorded as “neglectable cytotoxicity”. Moreover, the “averaged EFRET value” in data set [2] (Neuro-2a cells expressing 2FP—C-TDP-43, 48 h, 28.12% without compound, 3.36% negative control) is given as 22.4%. Also, the “EFRET of the C-TDP-43 oligomeric intermediates (statistically, ISS VistaVision)” value in data set [2] (Neuro-2a cells, decreased from 48.92% without compound) worked out at 40.11%. The “A11 signal intensity in SEC fractions 9-11 (oligomeric intermediates)” value in data set [3] was “significantly reduced”.
